Data from PubChem BioAssay AID330 (DTP/NCI, 2004).
“And” between values parts separate entries of the source, which are not always exact repeats. Identical values can stand only once. Toxic doses and inconclusive results are not listed.

Tested on: P388 leukemia ip, CD2F1 mice, survival T/C
Experiment: NCI In Vivo Anticancer Drug Screen. Data for tumor model P388 Leukemia (intraperitoneal) in CD2F1 (CDF1) mice
Settings: endpoint: median survival time, higher = longer survival
Method in brief: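 Mice carrying the transplanted tumor received test compound or vehicle. Survival was recorded in each group, and the value is the treated-group measurement divided by that of the vehicle-treated control group.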

[1] = dose: 50.0 mg/kg/injection, schedule: Q01DX009 (ip), vehicle: Klucel (hydroxypropylcellulose) (HPC)
[2] = dose: 100.0 mg/kg/injection, schedule: Q01DX009 (ip), vehicle: Klucel (hydroxypropylcellulose) (HPC)
[3] = dose: 200.0 mg/kg/injection, schedule: Q01DX009 (ip), vehicle: Klucel (hydroxypropylcellulose) (HPC)
[4] = dose: 50.0 mg/kg/injection, schedule: Q01DX009 (ip), vehicle: saline with Tween-80
[5] = dose: 100.0 mg/kg/injection, schedule: Q01DX009 (ip), vehicle: saline with Tween-80
[6] = dose: 100.0 mg/kg/injection, schedule: Q04DX002 (ip), vehicle: saline with Tween-80
[7] = dose: 50.0 mg/kg/injection, schedule: Q01DX005 (ip), vehicle: saline with Tween-80
[8] = dose: 100.0 mg/kg/injection, schedule: Q01DX005 (ip), vehicle: saline with Tween-80
[9] = dose: 200.0 mg/kg/injection, schedule: Q01DX005 (ip), vehicle: saline with Tween-80
[10] = dose: 60.0 mg/kg/injection, schedule: Q01DX005 (ip), vehicle: saline with Tween-80
[11] = dose: 120.0 mg/kg/injection, schedule: Q01DX005 (ip), vehicle: saline with Tween-80
[12] = dose: 200.0 mg/kg/injection, schedule: Q01DX009 (ip), vehicle: saline with Tween-80
[13] = dose: 50.0 mg/kg/injection, schedule: Q04DX002 (ip), vehicle: saline with Tween-80
[14] = dose: 240.0 mg/kg/injection, schedule: Q01DX005 (ip), vehicle: saline with Tween-80

`NC(CSCc1ccccc1)C(=O)O` (stereo not drawn) was tested, and the T/C (dose: 50.0 mg/kg/injection, schedule: Q01DX091 (ip), vehicle: Klucel (hydroxypropylcellulose) (HPC)) was 100 % of control, the T/C (dose: 100.0 mg/kg/injection, schedule: Q01DX091 (ip), vehicle: Klucel (hydroxypropylcellulose) (HPC)) was 102 % of control and the T/C (dose: 200.0 mg/kg/injection, schedule: Q01DX091 (ip), vehicle: Klucel (hydroxypropylcellulose) (HPC)) was 91 % of control. The T/C (dose: 400.0 mg/kg/injection, schedule: Q01DX091 (ip), vehicle: Klucel (hydroxypropylcellulose) (HPC)) was 101 % of control.

For `OCC1OC(n2ncc3c(Cl)ccnc32)C(O)C1O` (stereo not drawn), the T/C (dose: 4.0 mg/kg/injection, schedule: Q01DX005 (ip), vehicle: saline with Tween-80) was 100 % of control, the T/C (dose: 8.0 mg/kg/injection, schedule: Q01DX005 (ip), vehicle: saline with Tween-80) was 103 % of control and the T/C (dose: 16.0 mg/kg/injection, schedule: Q01DX005 (ip), vehicle: saline with Tween-80) was 97 % of control. The T/C (dose: 32.0 mg/kg/injection, schedule: Q01DX005 (ip), vehicle: saline with Tween-80) was 109 % of control and the T/C (dose: 64.0 mg/kg/injection, schedule: Q01DX005 (ip), vehicle: saline with Tween-80) was 100 % of control.

`O=C(O)CC1Sc2ccccc2NC1=O` (stereo not drawn) was tested, and the T/C [1] was 100 % of control, the T/C [2] was 108 % of control and the T/C [3] was 108 % of control. The T/C (dose: 400.0 mg/kg/injection, schedule: Q01DX009 (ip), vehicle: Klucel (hydroxypropylcellulose) (HPC)) was 100 % of control.

`Fc1ccccc1CN1COc2c(cc(Cl)c3cccnc23)C1` was tested, and the T/C (dose: 100.0 mg/kg/injection, schedule: Q04DX003 (ip), vehicle: Klucel (hydroxypropylcellulose) (HPC)) was 93 % of control, the T/C (dose: 200.0 mg/kg/injection, schedule: Q04DX003 (ip), vehicle: Klucel (hydroxypropylcellulose) (HPC)) was 100 % of control and the T/C (dose: 400.0 mg/kg/injection, schedule: Q04DX003 (ip), vehicle: Klucel (hydroxypropylcellulose) (HPC)) was 97 % of control.

For `Cc1ccc(NCCN(C)C)c2c(=O)c3ccc(O)cc3sc12`, the T/C [4] was 110 % of control and the T/C [5] was 110 % of control.

In the case of `CC(=O)OC1CCC2(C)CCC3C(OC(=O)C3(C)[Se]c3ccccc3)C2C1C` (stereo not drawn), the T/C [6] is reported as 91 % of control.

`COC(=O)/C=C/c1c(=O)c(C(=O)OC)cn2cnc3nc[nH]c3c12` was tested, and the T/C (dose: 100.0 mg/kg/injection, schedule: Q04DX003 (ip), vehicle: saline with Tween-80) was 97 % of control, the T/C (dose: 200.0 mg/kg/injection, schedule: Q04DX003 (ip), vehicle: saline with Tween-80) was 93 % of control and the T/C (dose: 400.0 mg/kg/injection, schedule: Q04DX003 (ip), vehicle: saline with Tween-80) was 98 % of control.

With `CC(O)CN(Cc1c(O)ccc2ccccc12)CC(C)O` (stereo not drawn) the T/C [7] was 108 % of control, the T/C [8] was 110 % of control and the T/C [9] was 99 % of control.

With `CCNC(=O)n1cccc(OC)c1=O` the T/C (dose: 50.0 mg/kg/injection, schedule: Q01DX009 (ip), vehicle: saline) was 101 % of control and 107 % of control, the T/C (dose: 100.0 mg/kg/injection, schedule: Q01DX009 (ip), vehicle: saline) was 109 % of control and 114 % of control and 119 % of control and the T/C (dose: 200.0 mg/kg/injection, schedule: Q01DX009 (ip), vehicle: saline) was 111 % of control and 116 % of control. For the same compound, the T/C (dose: 300.0 mg/kg/injection, schedule: Q01DX009 (ip), vehicle: saline) was 109 % of control.

With `COC(=O)c1nc(N)nc(C(=O)OC)c1C(=O)c1cccs1` the T/C [10] was 98 % of control and the T/C [11] was 99 % of control.

`N#C/C(=C/c1ccco1)c1ccc(Cl)cc1` was tested, and the T/C [1] was 90 % of control, the T/C [2] was 95 % of control and the T/C [3] was 92 % of control.

In the case of `O=CNc1ccc(O)cc1`, the T/C [5] is reported as 100 % of control, the T/C [12] is reported as 109 % of control and the T/C (dose: 400.0 mg/kg/injection, schedule: Q01DX009 (ip), vehicle: saline with Tween-80) is reported as 118 % of control.

With `COc1ccc2c(c1)C[N+](C)(CCc1ccccc1)[B-]O2` (stereo not drawn) the T/C (dose: 50.0 mg/kg/injection, schedule: Q01DX005 (ip), vehicle: saline + Tween-80 + alcohol) was 91 % of control and the T/C (dose: 100.0 mg/kg/injection, schedule: Q01DX005 (ip), vehicle: saline + Tween-80 + alcohol) was 93 % of control.

For `CC1[C@@]2(CCC(C)(C)O2)O[C@@H]2C=C3C4CCC5Cc6nc7c(nc6C[C@@]5(C)C4C[C@H](O)[C@@]3(C)[C@]12O)CC1CCC2C3=C[C@H]4O[C@@]5(O[C@@](C)(CO)C[C@@H]5O)C(C)[C@@]4(O)[C@]3(C)[C@@H](O)CC2[C@]1(C)C7` (stereo partly drawn), the T/C (dose: 12.5 micrograms/kg/injection, schedule: Q01DX009 (ip), vehicle: saline + alcohol) was 109 % of control, the T/C (dose: 25.0 micrograms/kg/injection, schedule: Q01DX009 (ip), vehicle: saline + alcohol) was 98 % of control and the T/C (dose: 50.0 micrograms/kg/injection, schedule: Q01DX009 (ip), vehicle: saline + alcohol) was 107 % of control. The T/C (dose: 100.0 micrograms/kg/injection, schedule: Q01DX009 (ip), vehicle: saline + alcohol) was 107 % of control.

For `COc1ccc(Cc2cc(O)c(O)cc2C)cc1`, the T/C (dose: 2.5 mg/kg/injection, schedule: Q01DX009 (ip), vehicle: saline with Tween-80) was 108 % of control, the T/C (dose: 5.0 mg/kg/injection, schedule: Q01DX009 (ip), vehicle: saline with Tween-80) was 105 % of control and the T/C (dose: 10.0 mg/kg/injection, schedule: Q01DX009 (ip), vehicle: saline with Tween-80) was 108 % of control.

In the case of `COc1ccc(/C=N\N=C(/[O-])c2ccccc2O)cc1.COc1ccc(/C=N\N=C(/[O-])c2ccccc2O)cc1.[Ni+2]`, the T/C [13] is reported as 93 % of control, the T/C [6] is reported as 86 % of control and the T/C (dose: 200.0 mg/kg/injection, schedule: Q04DX002 (ip), vehicle: saline with Tween-80) is reported as 88 % of control.

For `NC(=O)N(c1ccccc1)c1ccccn1`, the T/C [10] was 97 % of control, the T/C [11] was 97 % of control and the T/C [14] was 94 % of control.

`COc1ccc2c(c1)NC(=O)Cn1nnnc1-2` was tested, and the T/C (dose: 25.0 mg/kg/injection, schedule: Q04DX002 (ip), vehicle: saline with Tween-80) was 96 % of control, the T/C [13] was 91 % of control and the T/C [6] was 96 % of control. For the same compound, the T/C (dose: 400.0 mg/kg/injection, schedule: Q04DX002 (ip), vehicle: saline with Tween-80) was 93 % of control.

In the case of `COc1cc(OC)c(NC(=S)Nc2sc3c(c2C#N)CCCC3)cc1Cl`, the T/C (dose: 50.0 mg/kg/injection, schedule: Q01DX009 (ip), vehicle: gum acacia) is reported as 110 % of control, the T/C (dose: 100.0 mg/kg/injection, schedule: Q01DX009 (ip), vehicle: gum acacia) is reported as 103 % of control and the T/C (dose: 200.0 mg/kg/injection, schedule: Q01DX009 (ip), vehicle: gum acacia) is reported as 102 % of control.

With `C1CC[N-]CC1.C1CC[N-]CC1.C1CC[N-]CC1.C1CC[N-]CC1.N#C[S-].N#C[S-].[Ni]` the T/C (dose: 5.0 mg/kg/injection, schedule: Q04DX003 (ip), vehicle: saline with Tween-80) was 100 % of control and the T/C (dose: 10.0 mg/kg/injection, schedule: Q04DX003 (ip), vehicle: saline with Tween-80) was 100 % of control.

In the case of `FC(F)Oc1ccccc1`, the T/C (dose: 50.0 mg/kg/injection, schedule: Q01DX009 (ip), vehicle: acetone) is reported as 105 % of control, the T/C [4] is reported as 100 % of control and 101 % of control and the T/C (dose: 100.0 mg/kg/injection, schedule: Q01DX009 (ip), vehicle: acetone) is reported as 113 % of control. The T/C [5] was 100 % of control and 110 % of control, the T/C (dose: 200.0 mg/kg/injection, schedule: Q01DX009 (ip), vehicle: acetone) was 110 % of control and the T/C [12] was 114 % of control.

In the case of `O=C(CCl)NNC1=Nc2ccc(Cl)cc2SC1`, the T/C [10] is reported as 101 % of control, the T/C [11] is reported as 104 % of control and the T/C [14] is reported as 93 % of control.

For `O=C1CSC2=NCCN12`, the T/C (dose: 50.0 mg/kg/injection, schedule: Q01DX009 (ip), vehicle: suspension in saline) was 101 % of control, the T/C (dose: 100.0 mg/kg/injection, schedule: Q01DX009 (ip), vehicle: suspension in saline) was 107 % of control and the T/C (dose: 200.0 mg/kg/injection, schedule: Q01DX009 (ip), vehicle: suspension in saline) was 115 % of control.

With `CN(C)CCN1C(=O)c2c(c3cccn3c3c2cnn3-c2ccccc2)C1=O` the T/C [10] was 100 % of control, the T/C [11] was 102 % of control and the T/C [14] was 100 % of control.

In the case of `O=C(O)Cc1csc(=S)n1Cc1ccccc1`, the T/C [7] is reported as 100 % of control, the T/C [8] is reported as 102 % of control and the T/C [9] is reported as 90 % of control.

`O=C(NC(CO)C(=O)O)c1ccccc1` (stereo not drawn) was tested, and the T/C (dose: 50.0 mg/kg/injection, schedule: Q01DX005 (ip), vehicle: saline) was 100 % of control, the T/C (dose: 100.0 mg/kg/injection, schedule: Q01DX005 (ip), vehicle: saline) was 100 % of control and the T/C (dose: 200.0 mg/kg/injection, schedule: Q01DX005 (ip), vehicle: saline) was 100 % of control.

For `O=NNc1ccc(Oc2ccccc2)cn1`, the T/C (dose: 6.25 mg/kg/injection, schedule: Q01DX009 (ip), vehicle: saline) was 156 % of control.
